The text below walks through data of ChEMBL document CHEMBL1201862, “PubChem BioAssay data set” (2004).

Some test systems named below: HOP-62; NCI/ADR-RES; SK-MEL-5; HL-60; COLO 205; LOX IMVI; BT-549; NCI-H23; A549; KM12; SNB-19; RPMI-8226; IGROV-1; OVCAR-3; HCT-116; NCI-H460; NCI-H226; Malme-3M.
Holding throughout (experiment): NCI tumour cell line growth inhibition, 48 h

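Test compounds were applied to cells in 96-well plates for 48 hours at 5 doses. GI50 is the concentration that inhibits growth by half.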 The source made the active and inactive calls. Cut-off read from the data, not from the text of the source: active = GI50 up to about 1.1 µM and inactive = higher.

Turning to `C=C1C(C(=O)OC)[C@H]1C(=O)OC` (stereo partly specified), the GI50 in the assay with HOP-62, in the assay on NCI/ADR-RES, in the assay with SK-MEL-5, in the assay on HL-60, with COLO 205 and in the assay with LOX IMVI was > 100 µM (inactive) in each case. Besides, the GI50 with BT-549, in the assay with NCI-H23, in the assay on A549, with KM12, in the assay on SNB-19 and with RPMI-8226 was > 100 µM (inactive) in each case. Moreover, the GI50 in the assay on IGROV-1, in the assay on OVCAR-3, in the assay on HCT-116, in the assay on NCI-H460 and in the assay on NCI-H226 was > 100 µM (inactive) in each case.

For the compound `CC(C)(C)C1=CC(C)(n2[nH]c(=O)n(-c3ccccc3)c2=O)C=C(C(C)(C)C)C1=O`, the GI50 in the assay on NCI/ADR-RES, in the assay with SK-MEL-5, with COLO 205, with LOX IMVI, in the assay on BT-549 and with NCI-H23 was > 100 µM (inactive) each time. In addition, the GI50 was > 100 µM (inactive) in the assay with A549; > 100 µM (inactive) with KM12; > 100 µM (inactive) in the assay on SNB-19; 25.2 µM (inactive) with RPMI-8226; > 100 µM (inactive) in the assay with HCT-116; > 100 µM (inactive) in the assay with NCI-H460. Moreover, the GI50 in the assay on Malme-3M and with NCI-H226 was > 100 µM (inactive) throughout.

As to `CC1=Nc2nc3ccccc3n2C(C)(C)C1`, the GI50 in the assay on HOP-62, in the assay with NCI/ADR-RES, in the assay with SK-MEL-5, with COLO 205, in the assay with LOX IMVI and in the assay with BT-549 was > 100 µM (inactive) in each case. Moreover, the GI50 in the assay on NCI-H23, in the assay on A549, in the assay with KM12, in the assay with SNB-19, in the assay on RPMI-8226 and with IGROV-1 was > 100 µM (inactive) each time. The GI50 with OVCAR-3 is > 100 µM (inactive); in the assay with HCT-116, > 100 µM (inactive); with NCI-H460, > 100 µM (inactive); with Malme-3M, 4.54 µM (inactive); in the assay on NCI-H226, > 100 µM (inactive).

On to `C[C@H](CCC1=NCCN1)[C@H]1CC[C@H]2[C@@H]3CC[C@@H]4C[C@H](O)CC[C@]4(C)[C@H]3CC[C@]12C`, for which the GI50 in the assay on HOP-62 is 3.46 µM (inactive); in the assay with NCI/ADR-RES, 16.1 µM (inactive); with SK-MEL-5 it was 1.63 µM (inactive); with COLO 205, 1.95 µM (inactive); in the assay with LOX IMVI it was 1.95 µM (inactive); in the assay on BT-549 it was 14.4 µM (inactive). The GI50 in the assay on NCI-H23 is 15 µM (inactive); with A549, 8 µM (inactive); in the assay on KM12, 7.59 µM (inactive); in the assay with SNB-19 it was 13.9 µM (inactive); with RPMI-8226 it was 3.13 µM (inactive); with IGROV-1, 8.28 µM (inactive). Also, the GI50 in the assay with OVCAR-3 was 0.394 µM (active); in the assay on HCT-116, 4.72 µM (inactive); in the assay with NCI-H460 it was 2.91 µM (inactive); in the assay with Malme-3M, 2.44 µM (inactive); in the assay on NCI-H226, 7.46 µM (inactive).

Turning to `COc1cc(COC(=O)NC(Cc2cccs2)C(=O)O)c([N+](=O)[O-])cc1OC` (stereo unspecified), the GI50 in the assay with HOP-62, in the assay with NCI/ADR-RES, in the assay with SK-MEL-5, in the assay with HL-60, with COLO 205 and with BT-549 was > 100 µM (inactive) each time. The GI50 in the assay with NCI-H23, in the assay on A549, in the assay on KM12, in the assay on SNB-19, in the assay with RPMI-8226 and with IGROV-1 was > 100 µM (inactive) each time. The GI50 with OVCAR-3, with HCT-116, in the assay with NCI-H460, in the assay with Malme-3M and in the assay with NCI-H226 was > 100 µM (inactive) in each case.

On to `COc1cc2nc(-c3c(F)cccc3F)n(Cc3c(F)cccc3F)c2cc1Cc1c(F)cccc1F`, for which the GI50 with HOP-62 is > 100 µM (inactive); in the assay on NCI/ADR-RES, > 100 µM (inactive); with SK-MEL-5, 6.28 µM (inactive); in the assay on COLO 205, > 100 µM (inactive); with LOX IMVI, > 100 µM (inactive); with BT-549, > 71.8 µM (inactive). Also, the GI50 with NCI-H23 was > 100 µM (inactive); in the assay on A549 it was > 47.8 µM (inactive); in the assay on KM12, 3.77 µM (inactive); with SNB-19, > 100 µM (inactive); in the assay with RPMI-8226, 7.71 µM (inactive); in the assay on IGROV-1, 0.292 µM (active). Besides, the GI50 in the assay on OVCAR-3 was 4.73 µM (inactive); with HCT-116, > 26.7 µM (inactive); in the assay with NCI-H460, 15.3 µM (inactive); with Malme-3M it was > 24.8 µM (inactive); with NCI-H226, > 28.6 µM (inactive).

On to `Cc1cc2nc3c(C#N)c4c(c(Cl)n3c2cc1C)CCC4`, for which the GI50 is > 100 µM (inactive) in the assay on HOP-62; 18.3 µM (inactive) with NCI/ADR-RES; 21.9 µM (inactive) in the assay with SK-MEL-5; 65.8 µM (inactive) in the assay on COLO 205; 18.1 µM (inactive) with LOX IMVI; 22.5 µM (inactive) in the assay on BT-549. Moreover, the GI50 was 24.1 µM (inactive) in the assay on NCI-H23; 38.5 µM (inactive) with KM12; 16 µM (inactive) in the assay with RPMI-8226; 21.3 µM (inactive) with OVCAR-3; 16.1 µM (inactive) with HCT-116; 37.6 µM (inactive) with NCI-H460. The GI50 in the assay with Malme-3M was 52.8 µM (inactive); in the assay with NCI-H226, 74.1 µM (inactive).

Consider `CCNC1=C(NC(=O)c2ccc(OC)cc2)C(=O)c2ccccc2C1=O`, for which the GI50 with HOP-62 was > 100 µM (inactive); in the assay on NCI/ADR-RES, 29 µM (inactive); with SK-MEL-5 it was 34.7 µM (inactive); with HL-60 it was 51.6 µM (inactive); with COLO 205, 37 µM (inactive); in the assay with BT-549 it was 63.1 µM (inactive). Moreover, the GI50 with NCI-H23 was 43.6 µM (inactive); in the assay on A549, 70.3 µM (inactive); in the assay on KM12, 49.9 µM (inactive); in the assay with SNB-19, > 100 µM (inactive); with RPMI-8226 it was > 100 µM (inactive); in the assay with IGROV-1 it was 72.1 µM (inactive). Moreover, the GI50 with OVCAR-3 is 24 µM (inactive); in the assay with HCT-116 it was 36.3 µM (inactive); in the assay with NCI-H460, 56.5 µM (inactive); with Malme-3M it was 21.3 µM (inactive); with NCI-H226, > 100 µM (inactive).

As to `CN(C)c1nc(N)nc(CS)n1`, the GI50 was 56.1 µM (inactive) in the assay on HOP-62; > 100 µM (inactive) with NCI/ADR-RES; > 100 µM (inactive) in the assay with SK-MEL-5; 23.3 µM (inactive) in the assay with HL-60; > 100 µM (inactive) in the assay with COLO 205; 42.3 µM (inactive) with LOX IMVI. Moreover, the GI50 was > 100 µM (inactive) in the assay with BT-549; > 100 µM (inactive) with NCI-H23; 51.3 µM (inactive) with A549; > 100 µM (inactive) in the assay with KM12; > 100 µM (inactive) in the assay on SNB-19; 96.2 µM (inactive) in the assay with RPMI-8226. Besides, the GI50 in the assay with IGROV-1 is > 100 µM (inactive); in the assay with OVCAR-3 it was > 100 µM (inactive); in the assay with HCT-116, > 100 µM (inactive); with NCI-H460, 46 µM (inactive); in the assay with NCI-H226, > 100 µM (inactive).

For the compound `COc1ccc(C2CC(c3ccc4ccccc4c3O)=NN2)cc1OC` (stereo unspecified), the GI50 in the assay with HOP-62 was 54.6 µM (inactive); in the assay on NCI/ADR-RES, 32.7 µM (inactive); in the assay with SK-MEL-5, 58.5 µM (inactive); in the assay with COLO 205 it was 38.7 µM (inactive); in the assay on BT-549, 23.5 µM (inactive); in the assay with NCI-H23, 49.9 µM (inactive). Further, the GI50 is 38 µM (inactive) in the assay on A549; 48.4 µM (inactive) in the assay with KM12; 30.4 µM (inactive) in the assay on RPMI-8226; 83.4 µM (inactive) in the assay on IGROV-1; 33.1 µM (inactive) in the assay on OVCAR-3; 38.6 µM (inactive) with HCT-116. The values for the GI50 with NCI-H460, in the assay with Malme-3M and in the assay with NCI-H226 were 34.6 µM (inactive), 61.8 µM (inactive) and > 100 µM (inactive), respectively.

As to `CC(=O)OCc1cc(CCC(=O)NCCNc2c3ccccc3nc3ccccc23)cc(COC(C)=O)c1O[Si](C)(C)C(C)(C)C`, the GI50 in the assay on HOP-62 was 13.6 µM (inactive); in the assay on NCI/ADR-RES, 20.7 µM (inactive); with HL-60, 2.87 µM (inactive); in the assay with COLO 205 it was 4.35 µM (inactive); with LOX IMVI it was 1.95 µM (inactive); with BT-549, 13.7 µM (inactive). The GI50 is 14.5 µM (inactive) in the assay on NCI-H23; 7.13 µM (inactive) with A549; 2.95 µM (inactive) in the assay with KM12; 11.1 µM (inactive) in the assay on SNB-19; 2.57 µM (inactive) with RPMI-8226; 10.4 µM (inactive) in the assay on IGROV-1. For the same compound, the GI50 with OVCAR-3 was 2 µM (inactive); in the assay with HCT-116 it was 4.61 µM (inactive); in the assay with NCI-H460 it was 3.72 µM (inactive); in the assay on Malme-3M it was 6.25 µM (inactive); with NCI-H226, 2.19 µM (inactive).

As for `O=C(C#Cc1cn(C2CC(O)C(CO)O2)c(=O)[nH]c1=O)c1ccccc1` (stereo unspecified), the GI50 in the assay with HOP-62 is > 100 µM (inactive); in the assay on NCI/ADR-RES it was 32.6 µM (inactive); in the assay on SK-MEL-5, 88.7 µM (inactive); with COLO 205 it was 28.6 µM (inactive); in the assay on LOX IMVI, 49.8 µM (inactive); in the assay on BT-549, 37.2 µM (inactive). The GI50 with NCI-H23 was > 100 µM (inactive); in the assay on A549, > 100 µM (inactive); in the assay with KM12 it was > 100 µM (inactive); in the assay with SNB-19, > 100 µM (inactive); in the assay with RPMI-8226 it was 44 µM (inactive); in the assay with IGROV-1 it was > 100 µM (inactive). Besides, the GI50 was 21.1 µM (inactive) in the assay with OVCAR-3; 42.5 µM (inactive) in the assay with HCT-116; > 100 µM (inactive) in the assay with NCI-H460; 12.2 µM (inactive) in the assay on Malme-3M; 70 µM (inactive) with NCI-H226.
